Experimental data reported in article PMC8952293, “A Histone Deacetylase (HDAC) Inhibitor with Pleiotropic In Vitro Anti-Toxoplasma and Anti-Plasmodium Activities Controls Acute and Chronic Toxoplasma Infection in Mice” (International Journal of Molecular Sciences, 2022).
Where two headings read alike, the source gives them in different places.

What was measured:
Toxoplasma gondii = assay: In vitro anti-Toxoplasma proliferation in infected HFF monolayers (parasitic index, ScanR microscopy); format: cell-based
Procedure: To investigate the effect of the JF363 on parasite proliferation, human HFFs were infected and treated with JF363 (concentrations ranging from 0 to 2 μM). After 24 h of culture, parasites were enumerated within the parasitophorous vacuole, and the IC50 was calculated for each parasite strain (Table 1).
To assess the drug activity on Toxoplasma gondii, confluent HFF monolayers were infected with parasites, 5 × 10^4 per well, then centrifuged for 30 s at 500× g and incubated for 30 min in a water bath at 37 °C to allow invasion. The wells were then washed three times with phosphate-buffered saline (PBS) to eliminate extracellular parasites, and drugs were added at various concentrations ranging from 1 to 2 μM in triplicate. After 24 h incubation at 37 °C in a humidified atmosphere containing 5% CO2, Hoechst 33342 (5 μg/mL) was added to host cells infected by parasites and further incubated for 20 min. After two washes, cells were fixed with 3.7% formaldehyde for 10 min at 37 °C.
In experiments using nonfluorescent parasites, Toxoplasma vacuoles were fixed for 15 min with 3.7% formaldehyde and stained with anti-GRA1 mAb diluted 1/500 in 2% bovine serum albumin (BSA) and 0.1% Triton X-100 in PBS, for 1 h at room temperature. After two washes, goat serum anti-mouse IgG (H + L)–Alexa-488 (1/500) was added for 20 min. Finally, Hoechst 33342 was added as described above.
The number of infected cells, i.e., cells harboring parasitophorous vacuoles, and the number of parasites per vacuole were determined using an Olympus ScanR microscope (×20 objective) and ScanR software. First, the parasitic index (PI) in % compared to the control was calculated as follows: PI = ((number of parasite/100 cells in treated wells) × (% of infected HFFs in treated well)/(number of parasite/100 cells in untreated wells) × (% of infected HFFs in untreated wells)) × 100. Then, the 50% inhibitory concentration (IC50) was calculated using Prism software (Prism 4 for Mac OS X, version 5.0b, San Diego, CA, USA).

[1] = tested on: P. berghei hepatic infection; assay: In vitro P. berghei hepatic infection of Huh7 cells (bioluminescence); format: cell-based; settings: Plasmodium berghei, Huh-7
Procedure: Huh7 cells, a human hepatic cell line employed in the assessment of drug activity against the hepatic stage of P. berghei infection, were cultured in RPMI 1640 supplemented with 10% (v/v) fetal bovine serum, 1% (v/v) penicillin/streptomycin, 1% (v/v) glutamine, 1% (v/v) nonessential amino acids, and 10 mM N-2-hydroxyethylpiperazine-N′-2-ethanesulfonic acid (HEPES) at 37 °C and 5% CO2. For infection, Huh7 cells were seeded in 96-well plates at 1 × 10^4 cells/well.
Liver stage. The action of JF363 against the liver stage of P. berghei infection was assessed by bioluminescence, as previously described. Briefly, one day before infection, Huh7 cells were seeded in 96-well plates. JF363 stock solution was prepared in dimethyl sulfoxide (DMSO) and serially diluted in infection medium (culture medium supplemented with 50 µg/mL of gentamicin and 0.8 µg/mL of fungizone) to obtain the test concentrations (1, 10, 25, 50, […], 500 nM). […] At 46 h post-infection, the impact of the compound on cell viability was assessed by the AlamarBlue assay (Invitrogen, Carlsbad, CA, USA), following the manufacturer’s instructions. Following the manufacturer’s instructions, the drug’s effect on the parasite load was next evaluated using the Firefly Luciferase Assay Kit 2.0 (Biotium, Fremont, CA, USA). […]

Huh7 cells = assay: Host cell viability (cell confluency, AlamarBlue) in the hepatic infection assay; format: cell-based, human; settings: at the tested concentrations (up to 500 nM)
Procedure: Liver stage. The action of JF363 against the liver stage of P. berghei infection was assessed by bioluminescence, as previously described. Briefly, one day before infection, Huh7 cells were seeded in 96-well plates. JF363 stock solution was prepared in dimethyl sulfoxide (DMSO) and serially diluted in infection medium (culture medium supplemented with 50 µg/mL of gentamicin and 0.8 µg/mL of fungizone) to obtain the test concentrations (1, 10, 25, 50, […], 500 nM). These were added to the cells and incubated for 1 h at 37 °C and 5% CO2, after which 1 × 10^4 sporozoites were added to the wells. Plates were centrifuged at 1800× g for 5 min and incubated at 37 °C with 5% CO2 for the assay duration. At 46 h post-infection, the impact of the compound on cell viability was assessed by the AlamarBlue assay (Invitrogen, Carlsbad, CA, USA), following the manufacturer’s instructions. Following the manufacturer’s instructions, the drug’s effect on the parasite load was next evaluated using the Firefly Luciferase Assay Kit 2.0 (Biotium, Fremont, CA, USA). For IC50 determination, nonlinear regression analysis was employed to fit the normalized results of the dose–response curves, using GraphPad Prism 8 (Prism 4 for Mac OS X, version 5.0b, San Diego, CA, USA).

[2] = mouse, in vivo
[3] = tested on: T. gondii type II Prugniaud strain; assay: Chronic phase study: brain cyst burden in infected CBA mice; format: in vivo, mouse
Procedure: To assess the efficacy of compound JF363 on Toxoplasma cyst formation, infected CBA mice were treated for 15 days, two months post-infection. Then, 15 days later, mice were sacrificed, and brain cysts were counted.
Inbred CBA mice (Janvier Labs, Le Genest-Saint-Isle, France) were infected with 500 tachyzoites of Pru-DeltaKu80::HX strain. One month post-infection, effective infection was assessed by ELISA as described previously. Two months post-infection, mice were treated with 20 or 40 mg/kg of JF363 (corn oil/5% DMSO) for 15 days. Animals were sacrificed 15 days later, corresponding to 3 months post-infection, and brain cysts were counted. After removal and homogenization of mouse’s brain in 4 mL of PBS, suspensions were clarified by gentle incubation in proteinase K buffer (proteinase K 0.4 mg/mL, 10 mM Tris pH 8, ethylenediaminetetraacetic acid (EDTA) 1 mM, sodium dodecyl sulfate (SDS) 0.2%, sodium chloride 40 mM) for 15 min at 56 °C. The reaction was stopped by adding phenylmethylsulfonyl fluoride (PMSF) 2 mM and further incubation for 5 min at room temperature. The suspension was then washed with PBS and resuspended with fluorescein isothiocyanate (FITC)–Dolichos biflorus agglutinin (Vector Laboratories, CA, USA) […] for 30 min, at room temperature. At the end of the incubation, the suspension was washed with PBS and resuspended in a final volume of 1 mL of PBS distributed into six-well culture plates (1 brain per well). The number of cysts was counted by exanimation under an Axiovert 40 CFL inverted fluorescence microscope, Zeiss.

SMILES: COc1cccc(CC(=O)Nc2ccc(C(=O)NO)cc2)c1 [JF363]
- IC50 (Toxoplasma gondii; 24 h, read-out: IC50 range, strains other than haplogroup I and II, 24 h): 0.17 to 0.43 µM
- IC50 (Toxoplasma gondii; 24 h, strain GUY008-ABE, haplogroup 5, clade F, 24 h, mean ± SD of 3 experiments): 0.3 ± 0.21 µM
- IC50 (Toxoplasma gondii; 24 h, strain GUY009-AKO, haplogroup 10, clade F, 24 h, mean ± SD of 3 experiments): 0.43 ± 0.12 µM
- IC50 (Toxoplasma gondii; 24 h, strain GUY021-TOJ, haplogroup 10, clade F, 24 h, mean ± SD of 3 experiments): 0.27 ± 0.03 µM
- IC50 (Toxoplasma gondii; 24 h, strain GUY-JAG1, haplogroup 11, no clade, 24 h, mean ± SD of 3 experiments): 0.17 ± 0.34 µM
- IC50 (Toxoplasma gondii; 24 h, strain MAS, haplogroup 4, clade B, 24 h, mean ± SD of 3 experiments): 0.21 ± 0.01 µM
- IC50 (Toxoplasma gondii; 24 h, strain Prugniaud, haplogroup 2, clade D, 24 h, mean ± SD of 3 experiments): 0.27 µM
- IC50 (Toxoplasma gondii; 24 h, strain RH-YFP, haplogroup 1, clade A, 24 h, mean ± SD of 3 experiments): 0.56 ± 0.05 µM
- IC50 (Toxoplasma gondii; 24 h, strain VEG, haplogroup 3, clade C, 24 h, mean ± SD of 3 experiments): 0.18 ± 0.07 µM
- IC50 (Toxoplasma gondii; all tested T. gondii strains, depending on the haplogroup, read-out: IC50 range): 0.17 to 0.56 µM
- IC50 ([1]; Pb hepatic infection, Huh7 cells, 46 h post-infection): 0.0989 ± 0.0227 µM
- IC50 ([1]; hepatic stage of Plasmodium infection (discussion)): ~0.1 µM
- toxicity towards the hepatic host cells (cell confluency) (Huh7 cells): did not present toxicity
- toxicity in healthy treated mice (survival, hair loss, erythema, organ failure) [2]: not toxic
- diminution of cyst burden in the brain compared to untreated animals ([3]; 40 mg/kg): 65%
- number of brain cysts, range ([3]; 40 mg/kg oral for 15 days, two months post-infection, nontreated 76 to 312): 21–85
- number of brain cysts (mean ± SD) ([3]; 40 mg/kg oral for 15 days, two months post-infection, nontreated 168 ± 95, p < 0.05): 57 ± 29
